Measured values: patent US8865935B2, “Purification methods for betulonic acid and Boc-lysinated betulonic acid, and organic synthesis of betulonic acid amides with piperazine derivatives” (priority 2011, dated 2014)

Tests used:
[1] = system: Ochrobactrum intermedium KACC 11952T; assay: antibacterial test, paper disc diffusion method; format: cell-based; conditions: paper disc (diameter 8 mm) wetted with 60 μL of 1 mg/mL sample in DMSO on agar plate, test repeated three times
Protocol: (§1) An antibacterial test was carried out using the above-mentioned paper disc diffusion method. Betulonic acid amide was dissolved in DMSO to make a sample having a concentration of 1 mg/mL. A filter paper (diameter: 8 mm, manufactured by Advantec, Toyo Roshi Kaisha, Japan) wetted with 60 μL of the sample was attached to an agar plate, and then a circumference, around which bacteria were not cultivated, was measured. DMSO was used as a negative control, and gentamicin was used as a positive control. The antibacterial test was repeatedly carried out three times.

[2] = system: Ochrobactrum anthropi KCTC 22833T; assay: antibacterial test, paper disc diffusion method; format: cell-based; conditions: paper disc (diameter 8 mm) wetted with 60 μL of 1 mg/mL sample in DMSO on agar plate, test repeated three times
Protocol: as §1

[3] = system: Stenotrophomonas maltophilia KCTC 1773T; assay: antibacterial test, paper disc diffusion method; format: cell-based; conditions: for Antibacterial zone of inhibition (mm) S. maltophila: paper disc (diameter 8 mm) wetted with 60 μL of 1 mg/mL sample in DMSO on agar plate, test repeated three times
Protocol: as §1

[4] = system: Stenotrophomonas nitritireducens KACC 10891T; assay: antibacterial test, paper disc diffusion method; format: cell-based; conditions: paper disc (diameter 8 mm) wetted with 60 μL of 1 mg/mL sample in DMSO on agar plate; test repeated three times
Protocol: as §1

four kinds of bacteria = assay: antibacterial test, paper disc diffusion method, all strains; format: cell-based; conditions: from Table 3, 1 mg/mL sample
Protocol: An antibacterial test was carried out using the above-mentioned paper disc diffusion method. Betulonic acid amide was dissolved in DMSO to make a sample having a concentration of 1 mg/mL. A filter paper (diameter: 8 mm, manufactured by Advantec, Toyo Roshi Kaisha, Japan) wetted with 60 μL of the sample was attached to an agar plate, and then a circumference, around which bacteria were not cultivated, was measured. DMSO was used as a negative control, and gentamicin was used as a positive control. The antibacterial test was repeatedly carried out three times. Ochrobactrum anthropi KCTC 22833T and Stenotrophomonas maltophilia KCTC 1773T used in the antibacterial test were purchased from Korean Collection for Type Culture (KCTC), and Ochrobactrum intermedium KACC 11952T and Stenotrophomonas nitritireducens KACC 10891T used in the antibacterial test were purchased from Korean Agricultural Culture Collection (KACC). The diameters of clear circular zones of samples 2 to 7 of FIG. 1 were measured by a paper disc diffusion method, and compared to that of gentamicin. […] Particularly, it can be ascertained that the activity of sample 2 (4-(3′,4′-dichlorophenylpiperazin-1-yl) amide betulonic acid) and the activity of sample 7 (4-(4′-trifluoromethylphenylpiperazin-1-yl) amide betulonic acid) are highest.

Compound: 4-(4′-trifluoromethylphenylpiperazine-1-yl) amide betulonic acid [Compound 6 of FIG. 1]
- Antibacterial zone of inhibition (mm) O. intermedium [1]: 14 mm
- Antibacterial zone of inhibition (mm) O. anthropi [2]: 15 mm
- Antibacterial zone of inhibition (mm) S. maltophila [3]: 14 mm
- Antibacterial zone of inhibition (mm) S. nitritireducens [4]: 16 mm

Compound: C=C(C)[C@@H]1CC[C@]2(C(=O)N3CCN(c4ccc(F)cc4)CC3)CC[C@]3(C)C(CC[C@@H]4[C@@]5(C)CCC(=O)C(C)(C)C5CC[C@]43C)[C@@H]12 (stereo partly drawn) [Compound 1 of FIG. 1, 4-(4′-fluorophenylpiperazine-1-yl) amide betulonic acid]
- growth inhibition effect (four kinds of bacteria): growth inhibition effect only to Stenotrophomonas nitritireducens
- Antibacterial zone of inhibition (mm) S. nitritireducens [4]: 11 mm
- melting point: 151 to 152 °C

Compound: C=C(C)[C@@H]1CC[C@]2(C(=O)N3CCN(c4ccc(Cl)c(Cl)c4)CC3)CC[C@]3(C)C(CC[C@@H]4[C@@]5(C)CCC(=O)C(C)(C)C5CC[C@]43C)[C@@H]12 (stereo partly drawn) [Compound 2 of FIG. 1, 4-(3′,4′-dichlorophenylpiperazine-1-yl) amide betulonic acid]
- activity (ranking among the samples) (four kinds of bacteria): highest
- zone of inhibition at 1000 µg/mL ([1]; Brucella intermedia, KACC11952T, read-out: Antibacterial zone of inhibition (mm) O. intermedium): 14 mm
- zone of inhibition at 1000 µg/mL ([2]; Brucella anthropi, KCTC22833T, read-out: Antibacterial zone of inhibition (mm) O. anthropi): 15 mm
- zone of inhibition at 1000 µg/mL ([3]; Stenotrophomonas maltophilia, KCTC1773T, read-out: Antibacterial zone of inhibition (mm) S. maltophila): 13 mm
- Antibacterial zone of inhibition (mm) S. nitritireducens [4]: 15 mm
- melting point: 182 to 183 °C

Compound: C=C(C)[C@@H]1CC[C@]2(C(=O)N3CCN(c4ccccn4)CC3)CC[C@]3(C)[C@H](CC[C@@H]4[C@@]5(C)CCC(=O)C(C)(C)[C@@H]5CC[C@]43C)[C@@H]12 [Compound 4 of FIG. 1, 4-(2-pyridylpiperazine-1-yl) amide betulonic acid]
- Antibacterial zone of inhibition (mm) O. intermedium [1]: 10 mm
- Antibacterial zone of inhibition (mm) S. maltophila [3]: 10 mm

Compound: C=C(C)C1CCC2(C(=O)N3CCN(c4ncccn4)CC3)CCC3(C)C(CCC4C5(C)CCC(=O)C(C)(C)C5CCC43C)C12 (stereo not drawn) [Compound 5 of FIG. 1, 4-(2-pyrimidylpiperazine-1-yl) amide betulonic acid]
- Antibacterial zone of inhibition (mm) O. intermedium [1]: 10 mm
- Antibacterial zone of inhibition (mm) O. anthropi [2]: 13 mm
- Antibacterial zone of inhibition (mm) S. maltophila [3]: 10 mm
- Antibacterial zone of inhibition (mm) S. nitritireducens [4]: 11 mm

Compound: C=C(C)[C@@H]1CC[C@]2(C(=O)N3CCN(c4ccc(C(F)(F)F)cc4)CC3)CC[C@]3(C)C(CC[C@@H]4[C@@]5(C)CCC(=O)C(C)(C)C5CC[C@]43C)[C@@H]12 (stereo partly drawn) [Compound 6 of FIG. 1, 4-(4′-trifluoromethylphenylpiperazine-1-yl) amide betulonic acid]
- activity (ranking among the samples) (four kinds of bacteria): highest

Compound: gentamicin [reference compound]
- Antibacterial zone of inhibition (mm) O. intermedium [1]: 17 mm
- Antibacterial zone of inhibition (mm) O. anthropi [2]: 19 mm
- Antibacterial zone of inhibition (mm) S. maltophila [3]: 16 mm
- Antibacterial zone of inhibition (mm) S. nitritireducens [4]: 21 mm
